From patent US9796700B2 (Celgene CAR LLC, priority 2013, dated 2017)
Where two headings read alike, the source gives them in different places.

Tests used:
[1] = system: ERK1 phosphorylation of its substrate RSK in HT29 cells; assay: pRSK MSD Assay in HT29 cells; format: cell-based
Protocol: The protocol below describes an assay to measure the kinase activity of ERK1 to phosphorylate its substrate, RSK, in the presence of a test compound. This experiment was conducted using a Mesoscale Discovery plate. The day before the assay, HT29 cells were split and plated at 50,000 cells/well in complete growth media. After allowing cells to adhere, the media was removed and replaced with media containing 0.1% FBS and incubated overnight. Blank MDS plates were coated with 25 μl/well RSK capture antibody and incubated at 4° C. overnight. The next day, the media was removed and replaced with 100 μl of media containing a test compound and incubated for 120 minutes at 37° C. The media was removed and replaced with 55 μl of well lysis buffer with protease and phosphatase inhibitors provided in the kit, followed by incubation at 4° C. for 30 minutes. 50 μl of lysate was transferred to a blocked MSD plate, followed by incubation at room temperature for 2 hours under constant shaking. The plate was washed 3 times with MSD wash buffer (cat#R617TX), and 25 μl/well phospho-RSK (pRSK) detection antibody was added with an appropriate Sulfo-tagged anti-species detection antibody diluted in 1% BSA in MSD wash buffer. This mixture was incubated for 1 hour at room temperature under constant shaking. The plate was washed 3 times, and 150 μl 1×MSD read buffer was added, followed by signal detection in an MSD plate reader.

Erk1 = Erk1 (Homo sapiens (Human), UniProt P27361); assay: Protein Mass Modification Assay (intact protein MALDI); format: binding
In short: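 Percent covalent modification comes from the intact-protein MALDI centroid mass shift, treated versus control, divided by compound MW. Before analysis, human Erk1 was exposed to compound at 10-fold excess over protein for 60 min at room temperature.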

MEK1 activated ERK1 = MEK1 activated ERK1 (Homo sapiens (Human), UniProt P27361); assay: Omnia continuous-read kinase assay for potency against MEK1 activated ERK1; format: biochemical; settings: MEK1 activated ERK1, WT, ATP at KM
In short: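 Apparent IC50 came from initial reaction slopes (RFU vs time) plotted against log inhibitor with a variable-slope fit. Reactions were started with ERK1 (4 nM final) added to 50 μM ATP, roughly at its appKM, and 10 μM Sox-conjugated ST17 peptide in 20 mM Tris pH 7.5, 5 mM MgCl2. Fluorescence was monitored every 71 seconds.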

[2] = Homo sapiens, HT-29, HT29 cells, read-out: ERK1 PRSK MSD HT29 EC50

Sequence of Erk1 (P27361 whole entry, looked up): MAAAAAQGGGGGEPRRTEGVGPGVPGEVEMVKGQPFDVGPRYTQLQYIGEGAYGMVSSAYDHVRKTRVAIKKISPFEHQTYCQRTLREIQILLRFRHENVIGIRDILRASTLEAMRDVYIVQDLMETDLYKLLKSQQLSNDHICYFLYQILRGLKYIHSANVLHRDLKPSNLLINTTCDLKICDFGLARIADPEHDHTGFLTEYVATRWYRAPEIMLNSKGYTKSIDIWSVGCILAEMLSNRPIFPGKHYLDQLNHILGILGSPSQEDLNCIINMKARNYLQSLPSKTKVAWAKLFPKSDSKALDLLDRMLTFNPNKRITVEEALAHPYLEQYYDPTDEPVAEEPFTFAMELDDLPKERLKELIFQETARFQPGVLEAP
Sequence of MEK1 activated ERK1 (P27361 whole entry): as the sequence (P27361 whole entry, looked up) above

EC50 [1, 2]	ERK1 Mass Mod (%) (Erk1)	EC50 ([1]; HT29 cells, read-out: ERK1 PRSK MSD HT29 EC50)	IC50 (MEK1 activated ERK1)	Compound	EC50 ([1]; Homo sapiens, HT-29, read-out: ERK1 PRSK MSD HT29 EC50 (nM))
	G (proived a mass modification ≦30%)	101 to 500 nM		C=CC(=O)Nc1ccccc1Nc1nc(N[C@H]2CC[C@H](O)CC2)ncc1C(F)(F)F [Compound I-1, Trans-N-(2-((2-((4-hydroxycyclohexyl)amino)-5-(trifluoromethyl)pyrimidin-4-yl)amino)phenyl)acrylamide]	
501 to 999 nM	E (provided a mass modification of ≧70%)			C=CC(=O)Nc1ccccc1Nc1nc(N[C@H]2CC[C@H](C(N)=O)CC2)ncc1C(F)(F)F [Compound I-16, 4-((4-((2-acrylamidophenyl)amino)-5-(trifluoromethyl)pyrimidin-2-yl)amino) -trans-cyclohexanecarboxamide]	
101 to 500 nM	E (provided a mass modification of ≧70%)			C=CC(=O)Nc1ccccc1Nc1nc(Nc2cncc(C(N)=O)c2)ncc1C(F)(F)F [Compound I-63, 5-((4-((2-Acrylamidophenyl)amino)-5-(trifluoromethyl)pyrimidin-2-yl)amino)nicotinamide]	
	G (proived a mass modification ≦30%)		< 100 nM	CCC(=O)Nc1ccccc1Nc1nc(N[C@H]2CCCN(C(=O)CO)C2)ncc1C(F)(F)F [Compound I-318, (S)—N-(2-((2-((1-(2-hydroxyacetyl)piperidin-3-yl)amino)-5-(trifluoromethyl)pyrimidin-4-yl)amino)phenyl)propionamide]	
	E (provided a mass modification of ≧70%)		> 1000 nM	C=CC(=O)Nc1ccccc1Nc1nc(Nc2ccnc(NC)c2)ncc1C(F)(F)F [Compound I-321, N-(2-((2-((2-(methylamino)pyridin-4-yl)amino)-5-(trifluoromethyl)pyrimidin-4-yl)amino)phenyl)acrylamide]	
	E (provided a mass modification of ≧70%)		< 100 nM	C=CC(=O)Nc1cc(F)ccc1Nc1nc(Nc2cc(OC)ncc2C)ncc1C(F)(F)F [Compound I-322, N-(5-fluoro-2-((2-((2-methoxy-5-methylpyridin-4-yl)amino)-5-(trifluoromethyl)pyrimidin-4-yl)amino)phenyl)acrylamide]	
	E (provided a mass modification of ≧70%)		< 100 nM	C=CC(=O)Nc1cc(C)ccc1Nc1nc(Nc2cc(OC)nc(N3CC(O)C3)c2)ncc1C(F)(F)F [Compound I-328, N-(2-((2-((2-(3-hydroxyazetidin-1-yl)-6-methoxypyridin-4-yl)amino)-5-(trifluoromethyl)pyrimidin-4-yl)amino)-5-methylphenyl)acrylamide]	
	E (provided a mass modification of ≧70%)		> 1000 nM	C=CC(=O)Nc1cc(C)ccc1Nc1nc(Nc2cc(OC)nc(N3CCC3)c2)ncc1C(F)(F)F [Compound I-329, N-(2-((2-((2-(azetidin-1-yl)-6-methoxypyridin-4-yl)amino)-5-(trifluoromethyl)pyrimidin-4-yl)amino)-5-methylphenyl)acrylamide]	
	E (provided a mass modification of ≧70%)		> 1000 nM	C=CC(=O)Nc1cc(C)ccc1Nc1nc(Nc2cc(OC)nc(N3CCC(O)CC3)c2)ncc1C(F)(F)F [Compound I-332, N-(2-((2-((2-(4-hydroxypiperidin-1-yl)-6-methoxypyridin-4-yl)amino)-5-(trifluoromethyl)pyrimidin-4-yl)amino)-5-methylphenyl)acrylamide]	
	E (provided a mass modification of ≧70%)		< 100 nM	C=CC(=O)Nc1cc(OC)ccc1Nc1nc(Nc2cc(OC)nc(N3CCN(C)CC3)c2)ncc1C(F)(F)F [Compound I-334, N-(5-methoxy-2-((2-((2-methoxy-6-(4-methylpiperazin-1-yl)pyridin-4-yl)amino)-5-(trifluoromethyl)pyrimidin-4-yl)amino)phenyl)acrylamide]	
	E (provided a mass modification of ≧70%)		> 1000 nM	C=CC(=O)Nc1cc(C)ccc1Nc1nc(Nc2cnnc(OC)c2)ncc1C(F)(F)F [Compound I-335, N-(2-((2-((6-methoxypyridazin-4-yl)amino)-5-(trifluoromethyl)pyrimidin-4-yl)amino)-5-methylphenyl)acrylamide]	
	E (provided a mass modification of ≧70%)		> 1000 nM	C=CC(=O)Nc1cc(C)ccc1Nc1nc(Nc2nc(OC)ccc2Cl)ncc1C(F)(F)F [Compound I-360, N-(2-((2-((3-chloro-6-methoxypyridin-2-yl)amino)-5-(trifluoromethyl)pyrimidin-4-yl)amino)-5-methylphenyl)acrylamide]	
	E (provided a mass modification of ≧70%)		< 100 nM	C=CC(=O)Nc1cc(C)ccc1Nc1nc(Nc2cc(OC)cnc2Cl)ncc1C(F)(F)F [Compound I-361, N-(2-((2-((2-chloro-5-methoxypyridin-3-yl)amino)-5-(trifluoromethyl)pyrimidin-4-yl)amino)-5-methylphenyl)acrylamide]	
	E (provided a mass modification of ≧70%)		> 1000 nM	C#CCOc1cc(C)c(Nc2ncc(C(F)(F)F)c(Nc3ccc(C)cc3NC(=O)C=C)n2)cc1C(N)=O [Compound I-362, 5-((4-((2-acrylamido-4-methylphenyl)amino)-5-(trifluoromethyl)pyrimidin-2-yl)amino)-4-methyl-2-(prop-2-yn-1-yloxy)benzamide]	
	E (provided a mass modification of ≧70%)		> 1000 nM	C=CC(=O)Nc1cc(C)ccc1Nc1nc(Nc2nc(O)ncc2Cl)ncc1C(F)(F)F [Compound I-363, N-(2-((2-((5-chloro-2-hydroxypyrimidin-4-yl)amino)-5-(trifluoromethyl)pyrimidin-4-yl)amino)-5-methylphenyl)acrylamide]	
	E (provided a mass modification of ≧70%)		< 100 nM	C=CC(=O)Nc1cc(C)ccc1Nc1nc(Nc2nc(O)ncc2C)ncc1C(F)(F)F [Compound I-364, N-(2-((2-((2-hydroxy-5-methylpyrimidin-4-yl)amino)-5-(trifluoromethyl)pyrimidin-4-yl)amino)-5-methylphenyl)acrylamide]	
	E (provided a mass modification of ≧70%)		> 1000 nM	C=CC(=O)Nc1cc(C)ccc1Nc1nc(Nc2cc(O)ncc2C)ncc1C(F)(F)F [Compound I-365, N-(2-((2-((2-hydroxy-5-methylpyridin-4-yl)amino)-5-(trifluoromethyl)pyrimidin-4-yl)amino)-5-methylphenyl)acrylamide]	

Compound	EC50 [1, 2]	ERK1 Mass Mod (%) (Erk1)	EC50 ([1]; HT29 cells, read-out: ERK1 PRSK MSD HT29 EC50)	IC50 (MEK1 activated ERK1)	EC50 ([1]; Homo sapiens, HT-29, read-out: ERK1 PRSK MSD HT29 EC50 (nM))
C=CC(=O)Nc1ccccc1Nc1nc(N[C@@H]2CCC[C@H](C(=O)O)C2)ncc1Cl (racemic) [Compound I-133, Rac-3-((4-((2-acrylamidophenyl)amino)-5-chloropyrimidin-2-yl)amino)-cis-cyclohexanecarboxylic acid]	> 1000 nM	E (provided a mass modification of ≧70%)			
C=CC(=O)Nc1cc(C)ccc1Nc1nc(Nc2cc(C(C)=O)ccc2C)ncc1C(F)(F)F [Compound I-84, N-(2-((2-((5-Acetyl-2-methylphenyl)amino)-5-(trifluoromethyl)pyrimidin-4-yl)amino)-5-methylphenyl)acrylamide]		E (key: E: provided a mass modification of ≧70%; F: provided a mass modification of 31-69%; G: proived a mass modification ≦30%)			101 to 500 nM
